This passage reports MIC results from ChEMBL document CHEMBL4680273, “Teixobactin: A Paving Stone toward a New Class of Antibiotics?” (2020).

Holding throughout (format): functional
Assay [1] deals with Staphylococcus aureus. The experiment in a line: Antibacterial activity against Staphylococcus aureus ATCC 29213 by CLSI-based broth microdilution method. For orientation: In broth dilution the organism is exposed to a series of concentrations in liquid medium.
Assay [2] has as its system Staphylococcus aureus. The experiment in a line: Antibacterial activity against methicillin resistant Staphylococcus aureus.
Assay [3] deals with Staphylococcus aureus. The experiment in a line: Antibacterial activity against Staphylococcus aureus ATCC 29213.
Assay [4] deals with Staphylococcus aureus. The experiment in a line: Antibacterial activity against methicillin- resistant Staphylococcus aureus SA86.
Assay [5] has as its system Staphylococcus aureus. The experiment in a line: Antibacterial activity against Staphylococcus aureus ATCC 29213 incubated for 24 hrs by CLSI-based broth microdilution method.
Assay [6] has as its system Bacillus subtilis. The experiment in a line: Antibacterial activity against Bacillus subtilis ATCC 6051 incubated for 24 hrs by CLSI based broth microdilution method.
The test system of assay [7] is Staphylococcus aureus. The experiment in a line: Antibacterial activity against methicillin resistant Staphylococcus aureus USA300.
The subject of assay [8] is Staphylococcus aureus. The experiment in a line: Antibacterial activity against Staphylococcus aureus ATCC 29213 incubated for 16 hrs by UV/Visible absorbance method.
For assay [9], the system named is Staphylococcus epidermidis. The experiment in a line: Antibacterial activity against Staphylococcus epidermidis ATCC 14990 incubated for 16 hrs by UV/Visible absorbance method.
In assay [10] the test system is Pseudomonas aeruginosa. The experiment in a line: Antibacterial activity against Pseudomonas aeruginosa PAO1 incubated for 24 hrs in presence of colistin by Checkerboard assay.
The test system of assay [11] is Staphylococcus aureus. The experiment in a line: Antibacterial activity against Staphylococcus aureus SH1000 incubated for 24 hrs by CLSI-broth microdilution method. The following applies: Staphylococcus aureus, SH1000, read-out: MIC.
Assay [12] deals with Staphylococcus aureus. The experiment in a line: Antibacterial activity against Staphylococcus aureus.
For assay [13], the system named is Staphylococcus aureus. The experiment in a line: Antibacterial activity against Staphylococcus aureus 25923 incubated for 24 hrs by CLSI based broth microdilution method.

Molecules are shown by their SMILES. Values after ≈ are worked out from the molar mass of the structure shown.

Consider `CC[C@H](C)[C@H](NC(=O)[C@@H](Cc1ccccc1)NC)C(=O)N[C@@H](CO)C(=O)N[C@H](CC(N)=O)C(=O)N[C@@H](C(=O)N[C@H](C(=O)N[C@@H](C)C(=O)N[C@H]1C(=O)N[C@@H](C)C(=O)N[C@@H](CCCNC(=N)N)C(=O)N[C@@H]([C@@H](C)CC)C(=O)O[C@H]1C)[C@@H](C)CC)[C@@H](C)CC`, for which the figures for the MIC in [1] and in assay [2] were 2 µg/mL (≈ 1.65 µM) and 0.5 µg/mL (≈ 0.412 µM), respectively. Take `CC[C@H](C)[C@H](NC(=O)[C@H](NC(=O)[C@@H](CCC(N)=O)NC(=O)[C@H](CO)NC(=O)[C@H](CC(C)C)NC(=O)[C@@H](Cc1ccccc1)NC)[C@@H](C)CC)C(=O)N[C@@H](CO)C(=O)N[C@H]1C(=O)N[C@@H](C)C(=O)NC(CCCN)C(=O)N[C@@H]([C@@H](C)CC)C(=O)O[C@H]1C` (stereo partly specified): the MIC in assay [3] and in assay [4] was 4 µg/mL (≈ 3.33 µM) throughout. For `CC[C@H](C)[C@H](NC(=O)[C@H](NC(=O)[C@@H](CCC(N)=O)NC(=O)[C@H](CO)NC(=O)[C@@H](NC(=O)[C@@H](Cc1ccccc1)NC)C(C)C)[C@@H](C)CC)C(=O)N[C@@H](CO)C(=O)N[C@H]1C(=O)N[C@@H](C)C(=O)NC(CCCN)C(=O)N[C@@H]([C@@H](C)CC)C(=O)O[C@H]1C` (stereo partly specified), the MIC in [3] and in assay [4] was 8 µg/mL (≈ 6.73 µM) throughout. Take `CC[C@H](C)[C@H](NC(=O)[C@@H](Cc1ccccc1)NC)C(=O)N[C@@H](CO)C(=O)N[C@H](CCC(N)=O)C(=O)N[C@@H](C(=O)N[C@H](C(=O)N[C@@H](CCCCO)C(=O)N[C@H]1C(=O)N[C@@H](C)C(=O)N[C@@H](CCCNC(=N)N)C(=O)N[C@@H]([C@@H](C)CC)C(=O)O[C@H]1C)[C@@H](C)CC)[C@@H](C)CC`: the MIC (usually the lowest concentration found to suppress growth) in assay [5] was found to be 32 µg/mL (≈ 24.9 µM); in [6], 8 µg/mL (≈ 6.22 µM). `CC[C@H](C)[C@H](NC(=O)[C@@H](Cc1ccccc1)NC)C(=O)N[C@@H](CO)C(=O)N[C@H](CCCNC(=N)N)C(=O)N[C@@H](C(=O)N[C@H](C(=O)N[C@@H](C)C(=O)N[C@H]1C(=O)N[C@@H](C)C(=O)N[C@@H](CCCNC(=N)N)C(=O)N[C@@H]([C@@H](C)CC)C(=O)O[C@H]1C)[C@@H](C)CC)[C@@H](C)CC`: the MIC in assay [1] stood at 2 µg/mL (≈ 1.59 µM); in assay [2], 1 µg/mL (≈ 0.796 µM).

In assay [7], `CC[C@H](C)[C@H](NC(=O)[C@@H](Cc1ccccc1)NC)C(=O)N[C@@H](CO)C(=O)N[C@H](CCC(N)=O)C(=O)N[C@@H](C(=O)N[C@H](C(=O)N[C@@H](CO)C(=O)N[C@H]1C(=O)N[C@@H](C)C(=O)N[C@@H](CCC/N=C(\N)N(C)C)C(=O)N[C@@H]([C@@H](C)CC)C(=O)O[C@H]1C)[C@@H](C)CC)[C@@H](C)CC` showed an MIC of 4 µg/mL (≈ 3.14 µM). On to `CC[C@H](C)[C@H](NC(=O)[C@@H](Cc1ccccc1)NC)C(=O)N[C@@H](CO)C(=O)N[C@H](CCCCN)C(=O)N[C@@H](C(=O)N[C@H](C(=O)N[C@@H](C)C(=O)N[C@H]1C(=O)N[C@@H](C)C(=O)N[C@@H](CCCNC(=N)N)C(=O)N[C@@H]([C@@H](C)CC)C(=O)O[C@H]1C)[C@@H](C)CC)[C@@H](C)CC`, for which the values for the MIC in assay [5] and in [6] were 4 µg/mL (≈ 3.26 µM) and 1 µg/mL (≈ 0.814 µM), respectively. As for `CC[C@H](C)[C@H](NC(=O)[C@@H](Cc1ccccc1)NC)C(=O)N[C@@H](CO)C(=O)N(C)[C@H](CCC(N)=O)C(=O)N[C@@H](C(=O)N[C@H](C(=O)N[C@@H](CO)C(=O)N[C@H]1C(=O)N[C@@H](C)C(=O)N[C@@H](CCCCN)C(=O)N[C@@H]([C@@H](C)CC)C(=O)O[C@H]1C)[C@@H](C)CC)[C@@H](C)CC`, the MIC in assay [8] and in assay [9] was 16 µg/mL (≈ 13 µM) throughout. On to `CCCCC1NC(=O)C(CCCC(F)(F)F)NC(=O)[C@H](C)NC(=O)[C@H](NC(=O)[C@H](CO)NC(=O)[C@@H](NC(=O)[C@H](NC(=O)[C@@H](CCC(N)=O)NC(=O)[C@H](CO)NC(=O)[C@@H](NC(=O)[C@@H](Cc2ccccc2)NC)[C@@H](C)CC)[C@@H](C)CC)[C@@H](C)CC)[C@H](C)OC1=O` (stereo partly specified), for which the MIC in assay [10] turned out to be 32 µg/mL; in assay [11] it was 8 µg/mL (≈ 6.37 µM). Take `CC[C@H](C)[C@H](NC(=O)[C@@H](Cc1ccccc1)NC)C(=O)N[C@@H](CO)C(=O)N[C@H](CCC(N)=O)C(=O)N[C@@H](C(=O)N[C@H](C(=O)N[C@@H](CO)C(=O)N[C@H]1C(=O)N[C@@H](C)C(=O)N[C@@H](CCCNC(=N)N)C(=O)N[C@@H]([C@@H](C)CC)C(=O)O[C@H]1C)[C@@H](C)CC)[C@@H](C)CC`: the MIC is 2 µg/mL (≈ 1.61 µM) in assay [12], 1.6 µg/mL (≈ 1.29 µM) in assay [13] and 0.4 µg/mL (≈ 0.321 µM) in assay [6]. Turning to `CC[C@H](C)[C@@H]1NC(=O)[C@H](CCCNC(=N)N)NC(=O)[C@H](C)NC(=O)[C@H](NC(=O)[C@H](CO)NC(=O)[C@@H](NC(=O)[C@H](NC(=O)[C@@H](CCC(N)=O)NC(=O)[C@H](CO)NC(=O)[C@@H](NC(=O)[C@@H](Cc2ccccc2)NC)[C@@H](C)CC)[C@@H](C)CC)[C@@H](C)CC)CNC1=O`, the MIC in assay [9] was found to be 1 µg/mL (≈ 0.813 µM).
